From patent publication US11214556B1, “Method of treating colorectal cancer” (King Abdulaziz University, priority 2019, dated 2022) come the findings set out here.

In one data set the test system is Swiss albino mice. Nature of the data set: Acute oral toxicity (LD50), OECD guideline 423. The data set is classed as in vivo. The settings on record: oral, mice. From the text: Since compounds with electrophilic properties, e.g., MA are usually involved in a variety of toxic effects on mammalians, the general acute toxicity of 1512, 3712 and 4112 was investigated by determining the in vivo lethal dose (LD50) according to the Globally Harmonized Classification System (GHS) and following the Organization for Economic Cooperation and Development (OECD) guideline 423 (modified, adopted Mar. 23, 2006). As observed in the cellular assay, the compound safety was confirmed, as the LD50 for all compounds were between 2000-5000 mg/kg (Category 5). See Spielmann, H.; Genschow, E.; Liebsch, M.; Halle, W., Determination of the starting dose for acute oral toxicity (LD50) testing in the up and down procedure (UDP) from cytotoxicity data. ATLA 1999, 27 (6), 957-966, incorporated herein by reference in its entirety.
The experiment was conducted on 12 healthy Swiss albino mice (males and females) weighing 22-27 g and aged 8 to 10 weeks obtained from the Animal Station, Pharmacology Dept, Faculty of Pharmacy, King Abdulaziz University, Jeddah. See Shoieb, S. M.; Esmat, A.; Khalifa, A. E.; Abdel-Naim, A. B., Chrysin attenuates testosterone-induced benign prostate hyperplasia in rats. Food and Chemical Toxicology 2018, 111, 650-659, incorporated herein by reference in its entirety. All animals were kept at the regulated temperature (average 23° C.), air quality (Central air conditioning) and light (12-h light/dark cycles). Animals were provided free access to food pellets ad libitum and water. The experimental procedure was approved by the Research Ethics Committee, Faculty of Pharmacy, King Abdulaziz University prior to starting the laboratory work. Animals were humanely treated according to international and scientific principles. Changes other than vitality of the animals such as behavioral and food consumption habits were not observed in this study.
The compounds 1512, 3712 and 4112 of purity 95% or more (LC/MS) were prepared for this study as 10% suspension in water containing 0.5% tween 80.
The animals were distributed randomly into four groups (3 mice at each group). […] The second group received an oral dose of 2000 mg/Kg of the drug and observed after 24 h to count the deceased animals. According to the Guideline 423, when all animals were found alive, the same test was repeated (dose 2000 mg/kg) were given to the third group (3 animals) and observed for 24 h. All animals survived and therefore, a dose of 5000 mg/kg were administered to the fourth and final group.

For data set [1], the system named is HT-29 colon cancer cell spheroids (cancer stem cells). Description: Primary (1°) colonosphere formation assay. Format: cell-based, human. The protocol:
Compound 4112 and another potent compound 3712 were also evaluated for their ability to inhibit cancer stem cell proliferation using a primary (1°) colonosphere formation assay. In this assay, HT-29 colon cancer cells were grown in low adhesion plates to form spheres as previously described. See Patel, N. J.; Karuturi, R.; Al-Horani, R. A.; Baranwal, S.; Patel, J.; Desai, U. R.; Patel, B. B., Synthetic, non-saccharide, glycosaminoglycan mimetics selectively target colon cancer stem cells. ACS Chem Biol 2014, 9 (8), 1826-33, incorporated herein by reference in its entirety. Wells treated with the inventive compounds were compared to vehicle treated cells for primary sphere growth inhibition after 5 days of incubation. […] Of note, monolayer growth conditions are ideally suited for examining cellular proliferation, whereas spheroid growth conditions examine cancer stem cell growth and self-renewal properties.
For primary sphere formation, cells were plated in nontreated, low adhesion, 96 wells plate at the concentration of 100 cells/100 μL/well in stem cell media (SCM) that consisted of DMEM:F12:AA (Gibco), supplemented with 1×B27 (Gibco), 20 ng/mL epidermal growth factor, and 10 ng/mL fibroblast growth factor (Sigma). After 4 h of incubation, vehicle (control) or 3712 and 4112 at the desired concentrations were added to each well (at least in triplicates for each sample). On day five, numbers of spheres ranging from […] in diameter were counted using phase contrast microscope and percent inhibition was calculated compared to control.

A further data set deals with HT-29 cells. Description: SRB cytotoxicity assay, HT-29. Format: cell-based, human. The note with it: monolayer, 72 h exposure, ± SEM. The essentials:
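Cells seeded at 5000/well, grown 24 h, then exposed 72 h at 37 °C to 0.01–100 μM compound or 1% DMSO in RPMI1640 with 10% FBS. TCA-fixed, SRB-stained, OD read at 510 nm; viability expressed relative to untreated control cells.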

With `CCCNC(=O)/C(=C/c1c[nH]c2ccccc12)NC(=O)/C=C/c1cccs1` [Compound 4112, (Z)-3-(1H-indol-3-yl)-N-propyl-2-[(E)-3-(thien-2-yl)acrylamidolacry]amide], the “GHS acute toxicity category” value in the data set with Swiss albino mice was “Category 5”. Besides, the IC50 came to 18.9 ± 1.1 µM in data set [1] (HT-29 spheres, 5 days of incubation) and 1.65 ± 0.07 µM with HT-29 cells. Moreover, the “inhibition of colon cancer spheroids formation” value in data set [1] (spheroids >50 μm, 5 days) is “dose-dependent inhibition”.

As a reminder, the IC50 is the concentration needed to halve the response being measured.
